Data on 2 compounds can be found in patent publication US7579366B2, “Epothilone derivatives and their synthesis and use” (The Scripps Research Institute, priority 1998, dated 2009).

The conditions of data set [1]: from C/C(=C\I)[C@@H](O)C/C=C(\CCC[C@H](C)[C@H](O[Si](C)(C)C(C)(C)C)[C@@H](C)C(=O)C(C)(C)[C@H](CC(=O)O)O[Si](C)(C)C(C)(C)C)COC(c1ccccc1)(c1ccccc1)c1ccccc1; ester bond; 2,4,6-trichlorobenzoyl chloride, Et3N, 4-DMAP (Yamaguchi); toluene; 4.66 mM; 75.0 °C; 2.5 h.
The next data set deals with KB-31 cells. In words: Cell growth inhibition, KB-31 epidermoid carcinoma cells. Format: cell-based. The following applies: Homo sapiens, KB 3-1. How it is done:
(§1) Stock solutions of the test compound of formula I 10 mM) in DMSO are prepared and stored at −20° C. Human KB-31 and (multidrug-resistant, P-gp 170 overexpressing) KB-8511 epidermoid carcinoma cells are from Dr. M. Baker, Roswell Park Memorial Institute (Buffalo, N.Y., USA) (for description see also Akiyama et al., Somat. Cell. Mol. Genetics 11, 117-126 (1985) und Fojo A., et al., Cancer Res. 45, 3002-3007 (1985)—KB-31 und KB-8511 both are derivatives of the KB-cell line (American Type Culture Collection) and are human epidermoid carcinoma cells. KB-31 cells can be cultivated in mono-layers using calf serum (M.A. Bioproducts), L-glutamine (Flow), penicillin (50 Units/ml) und streptomycin (50 μg/ml (Flow); they then grow with a doubling rate of about 22 hours, and the relative efficiency of plating them out lies at about 60%. […] After washing again, the stain is eluted with 3% HCl and the optical density at 665 nm is measured with a SpectraMax 340 (Molecular Devices, Sunnyvale, Calif.). IC50-values are determined by mathematically fitting the data to curves using the SoftPro2.0 program (Molecular Devices, Sunnyvale, Calif.) and the formula [(OD treated)−(OD start)]/[(OD control)−(OD start)]×100. […]

The target of data set [2] is T1, pig brain microtubuli protein (tubulin plus microtubuli-associated proteins) (Sus scrofa, UniProt P02554).
T1 construct: Microtubuli-protein is obtained from pig brain by two cycles of temperature dependent depolymerisation/polymerisation; from tissue; host or cells: pig brain
T1 sequence (P02554 whole entry): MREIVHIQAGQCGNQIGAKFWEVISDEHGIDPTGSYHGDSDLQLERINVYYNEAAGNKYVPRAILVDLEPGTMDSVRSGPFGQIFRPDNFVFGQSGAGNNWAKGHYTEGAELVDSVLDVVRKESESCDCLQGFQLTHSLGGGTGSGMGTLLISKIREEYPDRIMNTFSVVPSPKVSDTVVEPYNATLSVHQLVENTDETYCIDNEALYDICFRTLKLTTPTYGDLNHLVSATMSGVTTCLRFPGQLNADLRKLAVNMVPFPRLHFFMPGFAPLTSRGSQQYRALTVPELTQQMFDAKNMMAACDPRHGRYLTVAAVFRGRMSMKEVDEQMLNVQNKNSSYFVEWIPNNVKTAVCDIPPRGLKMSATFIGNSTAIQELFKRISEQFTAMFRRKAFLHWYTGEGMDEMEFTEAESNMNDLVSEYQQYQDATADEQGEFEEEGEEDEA
T1 sequence (P02550 whole entry partner): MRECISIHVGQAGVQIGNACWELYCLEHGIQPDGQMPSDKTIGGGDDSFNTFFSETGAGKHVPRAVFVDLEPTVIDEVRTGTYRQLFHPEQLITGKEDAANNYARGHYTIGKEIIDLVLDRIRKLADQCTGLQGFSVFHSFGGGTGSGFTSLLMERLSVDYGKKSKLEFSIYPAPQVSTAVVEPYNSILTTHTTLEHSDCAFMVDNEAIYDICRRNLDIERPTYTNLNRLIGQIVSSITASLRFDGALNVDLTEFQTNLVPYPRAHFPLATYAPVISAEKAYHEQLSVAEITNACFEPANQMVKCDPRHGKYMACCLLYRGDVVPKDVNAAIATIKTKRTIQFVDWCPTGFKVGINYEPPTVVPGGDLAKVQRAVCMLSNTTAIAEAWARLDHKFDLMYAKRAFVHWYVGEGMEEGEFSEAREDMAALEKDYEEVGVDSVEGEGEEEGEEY
Nature of the data set: Induction of tubulin polymerisation, pig brain microtubuli, compared with 25 μM epothilone B. In kind it is biochemical. Conditions: 5 μM test compound versus epothilone B at 25 μM (in %). How it is done: Stock solutions of the test compounds are made in DMSO and stored at −20° C. Microtubuli-protein is obtained from pig brain by two cycles of temperature dependent depolymerisation/polymerisation, as described (see Weingarten et al., Biochemistry 1974; 13: 5529-37). Working stock solutions of microtubule protein (meaning tubulin plus microtubuli-associated proteins) are stored at −70° C. The degree of the microtubuli protein polymerisation induced by a test compound is measured essentially as known from the literature (see Lin et al., Cancer Chem. Pharm. 1996; 38:136-140). In short, 5 μl stock solution of the test compound are pre-mixed in the twenty-fold of the desired final concentration with 45 μl of water at room temperature, and the mixture is then placed on ice. […] As indirect measure for the tubulin-polymerisation the protein concentration of the supernatant (which contains the rest of the un-polymerised, soluble microtubuli protein) is determined according to the Lowry method (DC Assay Kit, Bio-Rad Laboratories, Hercules, Calif.), and the optical density (OD) of the color reaction is determined at 750 nm with a spectrometer (SpectraMax 340, Molecular Devices, Sunnyvale, Calif.). […]

The subject of another data set is KB-8511 cells. Nature of the data set: Cell growth inhibition, KB-8511 epidermoid carcinoma cells (P-gp overexpressing). Format: cell-based. Conditions: Homo sapiens. The protocol: as §1
A further data set relates to MCF-7/ADR cells. In words: Cell growth inhibition, MCF-7/ADR breast cells (multidrug resistant). Format: cell-based. Conditions: Homo sapiens, NCI/ADR-RES.
In the next data set the test system is A549 cells. In words: Cell growth inhibition, A549 lung cells. Format: cell-based. The following applies: Homo sapiens.
In the next data set the test system is DU145 cells. In words: Cell growth inhibition, DU145 prostate cells. Format: cell-based. Conditions: Homo sapiens, DU-145.
A further data set relates to HCT-15 cells. In words: Cell growth inhibition, HCT-15 colon cells. The following applies: Homo sapiens. Format: cell-based.
Another data set deals with HCT-116 cells. In words: Cell growth inhibition, HCT-116 colon cells. Format: cell-based. The following applies: Homo sapiens.
For another data set, the system named is PC-3M cells. In words: Cell growth inhibition, PC-3M prostate cells. Format: cell-based. Conditions: Homo sapiens.
In a further data set the test system is MCF-7 cells. In words: Cell growth inhibition, MCF-7 breast cells. Format: cell-based. Conditions: Homo sapiens, MCF7.

In [1], `C/C(=C\I)[C@@H]1C/C=C(/COC(c2ccccc2)(c2ccccc2)c2ccccc2)CCC[C@H](C)[C@H](O[Si](C)(C)C(C)(C)C)[C@@H](C)C(=O)C(C)(C)[C@@H](O[Si](C)(C)C(C)(C)C)CC(=O)O1` had a ring closure, yield of all isomers of 84%.

By IC50 is commonly meant the concentration at which inhibition is half-maximal. Lower therefore signals inhibition by little substance. Consider `C/C(=C\c1ccc(C)cn1)[C@@H]1C[C@@H]2O[C@]2(C)CCCC(C)[C@H](O)C(C)C(=O)C(C)(C)C(O)CC(=O)O1` (some centres unmarked) [D (Example 1), 5-Methylpyridine Analogue D of Epothilone B], for which the IC50 turned out to be 0.108 nM with KB-31 cells; 0.105 nM in the data set with KB-8511 cells; 0.853 nM in the data set on MCF-7/ADR cells; 0.17 nM with A549 cells; 0.252 nM with DU145 cells; 0.247 nM in the data set on HCT-15 cells. For the same compound, the IC50 turned out to be 0.209 nM in the data set on HCT-116 cells, 0.361 nM with PC-3M cells and 0.114 nM in the data set on MCF-7 cells. Moreover, the “Tubulin (%): induction of tubulin polymerisation” value in data set [2] is 88.9%.
